Assay results as given in the supplement of paper PMC10307832.

What was measured:
Experiment in all cases: relative viability (nuclei count vs DMSO), 5 days (fraction); higher = more cells survive
Gemcitabine + Dasatinib = compound: Nc1ccn([C@@H]2O[C@H](CO)[C@@H](O)C2(F)F)c(=O)n1 [Gemcitabine] + Cc1nc(Nc2ncc(C(=O)Nc3c(C)cccc3Cl)s2)cc(N2CCN(CCO)CC2)n1 [Dasatinib] (partner 0.075 µM)
Outline: (§1)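 Relative viability divides the nuclei count in treated wells by that in vehicle wells. Lung cancer cell lines were seeded in 1536-well plates, dosed by pin tool the next day, and fixed and stained after 5 days in one step with final 0.05% Triton X-100, 1% formaldehyde and 1 ug/ml Hoechst. Dosing was a single drug or a fixed anchor-drug dose plus five library-drug doses (not always all listed) in √10 steps, and values are medians of duplicate plates imaged at 4×.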

[1] = compound: Nc1ccn([C@@H]2O[C@H](CO)[C@@H](O)C2(F)F)c(=O)n1 [Gemcitabine] + CC(=O)c1c(C)c2cnc(Nc3ccc(N4CCNCC4)cn3)nc2n(C2CCCC2)c1=O [Palbociclib] (partner 0.5 µM)
Outline: as §1

Gemcitabine + Bortezomib = compound: Nc1ccn([C@@H]2O[C@H](CO)[C@@H](O)C2(F)F)c(=O)n1 [Gemcitabine] + CC(C)C[C@H](NC(=O)[C@H](Cc1ccccc1)NC(=O)c1cnccn1)B(O)O [Bortezomib] (partner 0.002 µM)
Outline: as §1

Gemcitabine + Alpelisib = compound: Nc1ccn([C@@H]2O[C@H](CO)[C@@H](O)C2(F)F)c(=O)n1 [Gemcitabine] + Cc1nc(NC(=O)N2CCC[C@H]2C(N)=O)sc1-c1ccnc(C(C)(C)C(F)(F)F)c1 [Alpelisib] (partner 2 µM)
Outline: as §1

Cell Line	relative viability (Gemcitabine + Dasatinib; first compound 0.001 µM)	relative viability (Gemcitabine + Dasatinib; first compound 0.003162 µM)	relative viability (Gemcitabine + Dasatinib; first compound 0.01 µM)	relative viability (Gemcitabine + Dasatinib; first compound 0.03162 µM)	relative viability (Gemcitabine + Dasatinib; first compound 0.1 µM)	relative viability ([1]; first compound 0.003162 µM)	relative viability ([1]; first compound 0.01 µM)	relative viability ([1]; first compound 0.03162 µM)	relative viability ([1]; first compound 0.1 µM)	relative viability (Gemcitabine + Bortezomib; first compound 0.001 µM)	relative viability (Gemcitabine + Bortezomib; first compound 0.003162 µM)	relative viability (Gemcitabine + Bortezomib; first compound 0.01 µM)	relative viability (Gemcitabine + Bortezomib; first compound 0.03162 µM)	relative viability (Gemcitabine + Bortezomib; first compound 0.1 µM)	relative viability (Gemcitabine + Alpelisib; first compound 0.001 µM)	relative viability (Gemcitabine + Alpelisib; first compound 0.003162 µM)	relative viability (Gemcitabine + Alpelisib; first compound 0.01 µM)	relative viability (Gemcitabine + Alpelisib; first compound 0.03162 µM)	relative viability (Gemcitabine + Alpelisib; first compound 0.1 µM)	relative viability ([1]; first compound 0.001 µM)
ABC-1	0.548	0.483	0.373	0.175	0.175	0.547	0.626	0.353	0.347	0.344	0.313	0.372	0.233	0.239	0.95	0.97	0.838	0.45	0.307	
HCC-15	0.589	0.666	0.561	0.0908	0.0718	0.722	0.634	0.327	0.0961	1.06	0.986	0.931	0.915	0.255	1.01	0.893	0.766	0.145	0.0627	0.811
PC-3 [JPC-3]	1.01	0.925	0.635	0.252	0.207	0.472	0.499	0.471	0.443	0.835	0.785	0.512	0.286	0.237	1.13	0.736	0.649	0.264	0.248	0.512
NCI-H1993	0.617	0.529	0.446	0.509	0.42	0.575	0.524	0.443	0.379	1.08	1.15	0.713	0.524	0.446	0.706	0.642	0.528	0.528	0.491	0.656
NCI-H1915	0.357	0.344	0.295	0.255	0.181	0.532	0.508	0.425	0.22	0.978	1	0.969	0.825	0.617	1.02	1.11	1.04	0.711	0.308	0.522
RERF-LC-KJ	0.837	0.879	0.768	0.291	0.19	1.02	0.991	0.356	0.255	1.12	1.25	0.92	0.559	0.294	0.853	0.849	0.856	0.496	0.228	1.06
LOU-NH91	0.545	0.28	0.455	0.244	0.242	0.522	0.478	0.474	0.412	0.498	0.494	0.423	0.323	0.313	0.726	0.515	0.457	0.316	0.263	0.524
NCI-H2347	0.291	0.304	0.257	0.22	0.195	0.432	0.404	0.364	0.325	0.621	0.961	0.534	0.653	0.401	1.05	0.815	0.752	0.574	0.324	0.412
NCI-H2126	0.647	0.6	0.548	0.389	0.19	0.367	0.312	0.29	0.281	1.05	1.1	1.04	0.985	0.67	0.749	0.705	0.728	0.504	0.255	0.323
HCC-827	0.295	0.226	0.319	0.253	0.186	0.304	0.309	0.197	0.164	0.964	1.08	0.875	0.607	0.427	0.895	0.48	0.56	0.391	0.167	0.497
NCI-H3122	0.852	0.89	0.588	0.0797	0.0782	0.177	0.175	0.119	0.148	1.08	0.985	0.889	0.303	0.24	0.824	0.774	0.627	0.234	0.165	0.195
HOP-62	0.667	0.571	0.163	0.0786	0.0707	0.339	0.184	0.0959	0.0958	0.506	0.39	0.209	0.0446	0.0459	0.829	0.572	0.0893	0.0529	0.061	0.358
